In patent US11071731B2, “Allosteric modulators of the mu opioid receptor” (Chiromics, LLC, priority 2017, dated 2021):
Read-outs that look alike come from different tables or passages of the source.

What was measured:
mu opioid receptor (MOR) [1] = target: T1, mu opioid receptor (MOR) (Homo sapiens, UniProt P35372); assay: PathHunter β-arrestin recruitment assay, PAM mode with EC20 endomorphin-1; format: cell-based; settings: for allosteric activity for β-arrestin recruitment: EC20 endomorphin-1 concentration of 4.5 nM
How it was run: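 β-Arrestin recruitment to the receptor was tracked by chemiluminescent β-galactosidase activity from complementing fragments (ED on receptor, EA on β-arrestin). Per-compound outputs were EC50 and percent maximal response.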

mu opioid receptor (MOR) [2] = target: T1, mu opioid receptor (MOR); assay: Hit Hunter cAMP signaling assay (adenylyl cyclase inhibition), PAM mode with EC20 endomorphin-1; format: cell-based; settings: for allosteric activity for cAMP signaling: EC20 endomorphin-1 concentration of 0.45 nM; for Max. Response: cAMP
[3] = target: T2, mu opioid receptor subtype OPRM1 (Homo sapiens, UniProt P35372); assay: β-arrestin recruitment assay, antagonist format; format: cell-based; settings: Table 18
Description: Beta-Arrestin Pathway: The PathHunter β-arrestin assay monitors the activation of a GPCR in a homogenous, non-imaging assay format using a technology developed by DiscoveRx called Enzyme Fragment Complementation (EFC) with beta-galactosidase (β-Gal) as the functional reporter. […] EA is fused to β-Arrestin and ED is fused to the GPCR of interest. When the GPCR is activated and β-arrestin is recruited to the receptor, ED and EA complementation occurs, restoring β-gal activity, which is measured using chemiluminescent PathHunter Detection Reagents.
Similar results were obtained when agonist and antagonist activity were assayed using cAMP signaling as the readout.

MOR [4] = target: T3, MOR (Homo sapiens, UniProt P35372); assay: cell-based; settings: EC20 morphine agonism of MOR; for EC50: RC50, β-arrestin; for Max. Response: β-arrestin
MOR [5] = target: T3, MOR; assay: cell-based; settings: EC20 morphine agonism of MOR; for EC50: RC50, cAMP; for Max. Response: cAMP
MOR [6] = target: T3, MOR; assay: cell-based; settings: EC20 Oxycodone agonism of MOR; for EC50: RC50, β-arrestin; for Max. Response: β-arrestin
MOR [7] = target: T3, MOR; assay: cell-based; settings: EC20 Oxycodone agonism of MOR; for EC50: RC50, cAMP; for Max. Response: cAMP
MOR [8] = target: T3, MOR; format: cell-based; settings: β-arrestin; EC20 EM2 agonism of MOR
MOR [9] = target: T3, MOR; format: cell-based; settings: cAMP; EC20 EM2 agonism of MOR
Sprague-Dawley rats [10] = assay: Respiratory depression: blood oxygen saturation by pulse oximetry; format: in vivo; settings: subcutaneous; morphine 10 mg/kg, compound 9 15, 30, 60 mg/kg; 90 minutes
Description: Respiratory depression is a significant side effect associated with opioid treatment of acute and chronic pain. Drug-related overdose deaths are often a function of the respiratory depression which occurs with opioid use. Efforts to generate analgesics that dissociate pain relief from side effects are critical to the advancement of public health. […] […].
Blood oxygen saturation was assessed in awake rats with the MouseOx oximeter system (Starr Life Sciences, Holliston, Mass.). Up to 5 samples were measured every 5 minutes for 15 minutes prior to dosing and 90 minutes after dosing. Each animal was habituated to the device over several days prior to the study.

Sprague-Dawley rats [11] = assay: Gastrointestinal transit of charcoal bolus and stomach contents; settings: morphine 10 mg/kg, compound 9 15, 30, 60 mg/kg
[12] = target: T2, mu opioid receptor subtype OPRM1
OPRM1 receptor = OPRM1 receptor (Homo sapiens, UniProt P35372)
MOR [13] = target: T3, MOR; format: cell-based
MOR [14] = target: T3, MOR; format: cell-based; remark: listed apart in the source
[15] = target: T2, mu opioid receptor subtype OPRM1; assay: cell-based
[16] = target: T4, PK-tagged delta opioid receptors (U20S-DOR1) (Homo sapiens, UniProt P41143); assay: β-arrestin recruitment in U20S PathHunter cells, PAM mode with EC20 DADLE; format: cell-based; settings: EC20 (0.8 nM) DADLE; concentrations up to 25 μM
T4 construct: host or cells: U20S Path Hunter cells

[17] = target: T5, PK-tagged kappa opioid receptors (U20S-KOR1) (Homo sapiens, UniProt P41145); assay: β-arrestin recruitment in U20S PathHunter cells, PAM mode with EC20 Dynorphin A; format: cell-based; settings: EC20 (0.8 nM) Dynorphin A; concentrations up to 25 μM
T5 construct: host or cells: U20S Path Hunter cells

[18] = maximal response for β-arrestin recruitment
[19] = β-arrestin recruitment, read-out: β-arr. EC50
[20] = adenylyl cyclase inhibition, read-out: cAMP EC50
[21] = maximal response for adenylyl cyclase inhibition
[22] = β-arrestin, EC20 EM-1 agonism of MOR
[23] = β-arrestin, EC20 EM-1 agonism of MOR, read-out: RC50 (the source's name)
[24] = RC50, cAMP, EC20 EM-1 agonism of MOR
[25] = cAMP EC50, adenylyl cyclase inhibition

T3 sequence (P35372 whole entry): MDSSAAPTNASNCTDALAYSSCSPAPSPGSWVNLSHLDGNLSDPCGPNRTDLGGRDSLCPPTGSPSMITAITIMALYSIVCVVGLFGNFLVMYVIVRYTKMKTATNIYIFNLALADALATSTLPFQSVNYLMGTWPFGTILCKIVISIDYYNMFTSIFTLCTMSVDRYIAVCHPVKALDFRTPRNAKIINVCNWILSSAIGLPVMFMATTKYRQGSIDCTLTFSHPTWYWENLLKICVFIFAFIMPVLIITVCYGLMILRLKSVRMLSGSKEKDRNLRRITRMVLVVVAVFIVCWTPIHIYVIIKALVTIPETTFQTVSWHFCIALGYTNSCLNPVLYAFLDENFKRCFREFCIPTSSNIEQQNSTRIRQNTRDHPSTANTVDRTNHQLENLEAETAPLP
T2 sequence (P35372 whole entry, the tested form may be a part): as the sequence (P35372 whole entry) above
T1 sequence (P35372 whole entry, the tested form may be a part): as the sequence (P35372 whole entry) above
Sequence of OPRM1 receptor (P35372 whole entry): as above

Compound	allosteric activity for β-arrestin recruitment (mu opioid receptor (MOR) [1])	β-arr Max. Resp. (mu opioid receptor (MOR) [1]; [18])	EC50 (mu opioid receptor (MOR) [1]; [19])	allosteric activity for cAMP signaling (mu opioid receptor (MOR) [2])	EC50 (mu opioid receptor (MOR) [2]; [20])	cAMP Max. Resp. (mu opioid receptor (MOR) [2]; [21])	IC50 [3]	Max. Response (mu opioid receptor (MOR) [1]; [22])	EC50 (mu opioid receptor (MOR) [1]; [23])	EC50 (mu opioid receptor (MOR) [2]; [24])	EC50 (mu opioid receptor (MOR) [2]; [25])	Max. Response (mu opioid receptor (MOR) [2]; EC20 EM-1 agonism of MOR)	EC50 (MOR [4])	Max. Response (MOR [4])	EC50 (MOR [5])	Max. Response (MOR [5])	EC50 (MOR [6])	Max. Response (MOR [6])	EC50 (MOR [7])	Max. Response (MOR [7])	also measured
COc1ccc(C2CC(C(F)(F)F)CN2S(=O)(=O)c2ccc(Cl)cc2)cc1Br (single isomer, unassigned) [Compound 109]	moderate positive allosteric effect	F (F represents a maximal response of > 60%)	> 2100 nM	moderate positive allosteric effect	< 700 nM	E (E represents a maximal response of 40-60%)	> 25 µM	–	–	–	–	–	–	–	–	–	–	–	–	–	–
Fc1ccc(Cl)cc1CN1CCCCC1c1cccc(C(F)(F)F)n1 (centres unmarked) [compound 2]	high positive allosteric activity	F (F represents a maximal response of > 60%)	< 700 nM	high positive allosteric activity	–	F (F represents a maximal response of > 60%)	–	143	360 nM	570 nM	< 700 nM	81	9590 nM	156	> 25000 nM	26	13600 nM	126	> 25000 nM	5	signaling preference β-arrestin vs cAMP (mu opioid receptor (MOR) [1]; comparison of β-arrestin and cAMP assays): roughly equivalent signaling for β-arrestin and cAMP; β-arr. Max Resp. (mu opioid receptor (MOR) [1]; maximal response for β-arrestin recruitment, Table 3): 72; EC50 (mu opioid receptor (MOR) [1]; β-arrestin recruitment, Table 3, read-out: β-arr. EC50): 155 nM; EC50 (mu opioid receptor (MOR) [2]; cAMP EC50 (nM), adenylyl cyclase inhibition, Table 3): 170 nM; cAMP Max Resp. (mu opioid receptor (MOR) [2]; maximal response for adenylyl cyclase inhibition, Table 3): 85; Max. Response (MOR [8]): 97; Max. Response (MOR [9]): 83
CN1CC[C@]23c4c5ccc(O)c4O[C@H]2[C@@H](O)C=C[C@H]3[C@H]1C5 [morphine, reference compound]	–	–	–	–	–	–	–	–	–	–	–	–	–	–	–	–	–	–	–	–	oxygen saturation / respiratory depression (Sprague-Dawley rats [10]): significant reduction in oxygen saturation; stomach weight (Sprague-Dawley rats [11]; 20 minutes after charcoal): increased; GI transit (Sprague-Dawley rats [11]; subcutaneous 1 hour before charcoal): significantly decreased
COc1ccc(C2C3CCC(C3)N2S(=O)(=O)c2ccc(Cl)cc2)cc1Br (centres unmarked) [Compound 177]	moderate positive allosteric effect	F (F represents a maximal response of > 60%)	> 2100 nM	moderate positive allosteric effect	> 2100 nM	E (E represents a maximal response of 40-60%)	> 25 µM	–	–	–	–	–	–	–	–	–	–	–	–	–	–
Fc1cnc(Cl)nc1N1CCCCC1c1cccc(C(F)(F)F)c1 (single isomer, unassigned) [compound 8]	–	F (F represents a maximal response of > 60%)	< 700 nM	–	–	F (F represents a maximal response of > 60%)	–	213	330 nM	840 nM	700 to 2100 nM	76	7110 nM	487	2000 nM	44	12900 nM	343	1910 nM	56	–
COc1ccc2c3c1O[C@H]1C(=O)CC[C@@]4(O)[C@@H](C2)N(C)CC[C@]314 [oxycodone]	–	–	–	–	–	–	–	–	–	–	–	–	–	–	–	–	–	–	–	–	% Max. Resp., β-arrestin [12]: 102.03%; % Max. Resp., cAMP (OPRM1 receptor): 100.62%
COc1ccc(C2CCCCN2S(=O)(=O)c2ccc(Cl)cc2)cc1Br (single isomer, unassigned) [compound 6]	moderate positive allosteric effect	F (F represents a maximal response of > 60%)	700 to 2100 nM	moderate positive allosteric effect	–	F (F represents a maximal response of > 60%)	> 25 µM	173	2520 nM	500 nM	< 700 nM	93	8250 nM	421	2960 nM	93	4830 nM	384	320 nM	90	Max. Response (MOR [8]): 117; Max. Response (MOR [9]): 91; factor of increase of the affinity (α) of oxycodone (MOR [13]; β-arrestin): 2; factor of increase of the efficacy (β) of oxycodone (MOR [13]; β-arrestin): 80; shift in the potency of oxycodone (MOR [13]; β-arrestin recruitment): concentration-dependent and saturable leftward shifts; shift in the potency of oxycodone (MOR [14]; adenylyl cyclase inhibition): concentration-dependent and saturable leftward shifts; factor of increase of the affinity (α) of oxycodone (MOR [14]; cAMP): 4; factor of increase of the efficacy (β) of oxycodone (MOR [14]; cAMP): 4; effective potency for PAM effect (MOR [14]; cAMP signal, oxycodone): 234 nM; EC50 [15]: > 25000 nM
COc1ccc(C2N(S(=O)(=O)c3ccc(Cl)cc3)CCC2(F)F)cc1Br (single isomer, unassigned) [Compound 110]	moderate positive allosteric effect	F (F represents a maximal response of > 60%)	> 2100 nM	moderate positive allosteric effect	> 2100 nM	F (F represents a maximal response of > 60%)	> 25 µM	–	–	–	–	–	–	–	–	–	–	–	–	–	–
COc1ccc(C2C(C(F)(F)F)CCN2S(=O)(=O)c2ccc(Cl)cc2)cc1Br (single isomer, unassigned) [Compound 108]	moderate positive allosteric effect	F (F represents a maximal response of > 60%)	> 2100 nM	moderate positive allosteric effect	> 2100 nM	E (E represents a maximal response of 40-60%)	> 25 µM	–	–	–	–	–	–	–	–	–	–	–	–	–	–
O=S(=O)(c1ccc(Cl)cc1)N1CCCCC1c1ccc(F)c(Br)c1 (racemic) [compound 60]	–	F (F represents a maximal response of > 60%)	< 700 nM	–	< 700 nM	E (E represents a maximal response of 40-60%)	–	–	–	–	–	–	–	–	–	–	–	–	–	–	β-arrestin Max Response (mu opioid receptor (MOR) [1]; β-arrestin recruitment, activity switching by MOR PAMs): F (F represents a maximal response of >60%); EC50 (mu opioid receptor (MOR) [1]; β-arrestin recruitment, activity switching by MOR PAMs, read-out: β-arrestin EC50): > 2100 nM; cAMP Max Resp. (mu opioid receptor (MOR) [2]; adenylyl cyclase inhibition, activity switching by MOR PAMs): D (D represents a maximal response of < 40%); EC50 (mu opioid receptor (MOR) [2]; adenylyl cyclase inhibition, activity switching by MOR PAMs, read-out: cAMP EC50): > 2100 nM; positive allosteric effect on DOR signaling [16]: no significant positive allosteric effect; positive allosteric effect on KOR signaling [17]: no significant positive allosteric effect
